Three compounds from patent US6716849B1, “Substituted phenylcyclohexane carboxylic acid amides that have an adenosine uptake inhibiting effect” (Bayer Aktiengesellschaft, priority 2001, dated 2004) can be followed below.

SMILES strings stand for the structures. Converted amounts (≈) assume the structure as drawn.

Series [1] can be described thus: Determination of the solubility (precipitation method, physiological saline, HPLC). It is filed as physicochemical. As to conditions: saline or isotonic, kinetic from dmso stock, 25° C., 24 hours equilibration. On the procedure: 1. Determination of the Solubility
To determine the solubility, a precipitation method was used:
10 mg of the test substance are completely dissolved in 50 μl of DMSO (stock solution). 20 μl of this solution are added to 2000 μl of physiological saline. This solution, in turn, is shaken at 25° C. in a Thermomixer Comfort (from Eppendorf) at 1400 rpm for 24 hours for equilibration.
The precipitated fractions of the test substance are centrifuged off using a Biofuge 15 from Heraeus at 14,000 rpm for 5 min. 1300 μl of the supernatant are once more centrifuged using a Microfuge from Beckmann at 45,000 rpm=125,000 g.
10 μl of this centrifigation supernatant are then diluted with 1000 μl of DMSO, and this solution is measured by HPLC (Hewlett Packard 1090, method, gradient from 100% PBS buffer pH=4 to 10% buffer/90% acetonitrile over a period of 15 min, column: RPI8; PBS buffer pH=4 is a physiological saline solution adjusted to pH=4 using phosphate buffer).
Using a calibration curve, the measured peak area of the HPLC measurement is converted into substance concentration. For the calibration curve, 20 μl of the stock solution are diluted successively with DMSO such that 5 concentrations of 2.5 mg/l to 2000 mg/l result. These solutions are likewise measured by HPLC (see method above), and the peak areas are plotted as a function of the concentrations.

Series [2] relates to transient occlusion of the middle cerebral artery (tMCA-O). As to the kind of experiment: tMCA-O: transient occlusion of the middle cerebral artery, infarct volume. It is filed as in vivo. As to conditions: rat tMCA-O, 0.001 mg/(kg×h) i.v. infusion, begun at start of reperfusion, evaluated after 2 days. The procedure:
The neuroprotective activity of the compounds according to the invention was determined in the animal model of transient occlusion of the middle cerebral artery (tMCA-O) and the subdural haematoma (SDH). […] Under general anaesthesia (inhalation anaesthesia with isoflurane), the hairs in the lower anterior neck region are shaved off, in the dorsal position, the head is fixed, the skin is disinfected and the neck area is opened in the middle along the trachea. The right lateral neck muscles are severed bluntly and, together with the skin, pulled to the side (retractors) so that the common carotid artery is clearly visible. The common carotid artery is exposed towards the head up to the point where it branches into the internal carotid artery and the external carotid artery. Using surgical suture material, the common carotid artery (near the thorax) and the external carotid artery are tied off. Using a microclamp; the internal carotid artery is closed temporarily. […] After 2 days of post-operative survival, the volume of the cerebral infarct is determined with the aid of a computer-supported image analysis system using preproduced series of histological brain sections. The size of the infarct is evaluated differentially by cortex, striatum, hippocampus and other brain areas.

Series [3] has as its target T1, adenosine transport protein from calf cortex (Bos taurus, UniProt A0ACM8Q8F7).
T1 construct: a membrane preparation of cerebral calf cortex is used, which expresses the relevant adenosine transporter; from tissue; host or cells: cerebral calf cortex, membrane preparation
T1 sequence (A0ACM8Q8F7 1-456): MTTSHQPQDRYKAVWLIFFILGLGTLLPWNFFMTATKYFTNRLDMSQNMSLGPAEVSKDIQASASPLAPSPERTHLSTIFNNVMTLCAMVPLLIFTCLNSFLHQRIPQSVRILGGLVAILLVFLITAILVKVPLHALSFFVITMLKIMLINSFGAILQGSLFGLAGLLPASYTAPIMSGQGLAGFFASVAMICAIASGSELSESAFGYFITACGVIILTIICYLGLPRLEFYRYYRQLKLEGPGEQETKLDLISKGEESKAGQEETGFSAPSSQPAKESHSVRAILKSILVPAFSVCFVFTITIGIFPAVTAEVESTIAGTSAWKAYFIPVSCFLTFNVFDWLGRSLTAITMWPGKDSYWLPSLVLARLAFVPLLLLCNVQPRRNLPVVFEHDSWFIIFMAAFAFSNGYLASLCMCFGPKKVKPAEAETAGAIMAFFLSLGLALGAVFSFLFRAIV
As to the kind of experiment: Binding to an adenosine transport protein from calf cortex (displacement of radio-labelled NBTI). As to conditions: membrane preparation of cerebral calf cortex, read-out: Ki, inhibition of NBTI-binding. From the text: 2. Binding of the Compounds According to the Invention to an Adenosine Transport Protein From Calf Cortex
The ability of substances to influence the adenosine uptake system is investigated firstly by determining the binding affinity of selected substances to an adenosine transport protein of the CNS and secondly by determining the inhibiting effect of the substances on functional adenosine uptake.
For the binding test, a membrane preparation of cerebral calf cortex is used, which expresses the relevant adenosine transporter. The binding affinity (Ki value) is determined by measuring the displacement of a specific radio-labelled ligand [nitrobenzylthioinosine (NBTI)] from the binding site in question by test substances. The binding site is the binding site on the transport protein which is relevant for the actual transport process. Thus, binding of test substances in this experiment results in a quantifiable release of bound radioactive NBTI which makes determination of the Ki value possible. (J. Neurochemistry 1982,39, 184-191).

In series [4] the test system is subdural haematoma (SDH). As to the kind of experiment: Subdural haematoma in rats (SDH), infarct volume. It is filed as in vivo. As to conditions: rat SDH, 0.001 mg/(kg×h) i.v. infusion. On the procedure:
The neuroprotective activity of the compounds according to the invention was determined in the animal model of transient occlusion of the middle cerebral artery (tMCA-O) and the subdural haematoma (SDH). 5. Subdural Haematoma in Rats (SDH) This rodent model (rat) imitates pathophysiology and cerebral pathology of the blunt skull-brain trauma with subdural hemorrhage and development of a subdural haematoma in man. (Neurosurgery 190, 27,433-439). Under anaesthesia, the animals are unilaterally injected subdurally with their own blood. Under the haematoma, an infarct forms. The substance is administered according to different schedules and via different administration routes (i.v., i.p.). The size of the infarct is determined as described in the model of the transient focal ischaemia in rats (tMCA-O).

What is called solubility is how much of the substance goes into solution per volume. Read a high solubility as much dissolved substance. By Ki is commonly meant the equilibrium dissociation constant of an inhibitor or competing ligand from its target.

For the compound `CN1CCN(c2nc3ccccc3n2Cc2ccc([C@@H]3CCCC[C@H]3C(=O)N[C@H](C(N)=O)c3ccccc3)cc2)CC1` [Example 5, (S)-N-{{(1R,2R)-2-{4-{[2-(4-Methyl-piperazin-1-yl)benzimidazol-1-yl]methyl}-phenyl}-cyclohex-1-yl}carbonyl}-phenylglycinamide], the solubility at 24 h in series [1] came out at 16 µg/mL (≈ 28.3 µM). Besides, the “reduction of the infarct volume in comparison to control animals” value (shortened to “reduction of the infarct volume”) in series [2] was 91%. Besides, the inhibition constant (Ki) in series [3] was 2 nM.
Take `Cl.NC(=O)[C@@H](NC(=O)[C@@H]1CCCC[C@H]1c1ccc(Cn2c(CN3CCOCC3)nc3ncccc32)cc1)c1ccccc1` [Example 4, (S)-N-{{(1R,2R)-{4-{2-[2-(Morpholin-4-yl-methyl)-1H-pyrido[2,3-d]imidazol-1-yl]methyl}-phenyl}-cyclohex-1-yl}carbonyl}-phenylglycinamide hydrochloride]: the “reduction of the infarct volume” value in series [4] is on record as 45%.
For the compound `NC(=O)[C@@H](NC(=O)[C@@H]1CCCC[C@H]1c1ccc(Cn2c(CN3CCOCC3)nc3cccnc32)cc1)c1ccccc1` [Example 3], the figures for the “reduction of the infarct volume” value in series [4] and in series [2] were 30% and 81%, respectively. For the same compound, the concentration in solution in series [1] (solubility at 24 h) came to 176 µg/mL (≈ 311 µM). Moreover, the Ki in series [3] is 2 nM.
